Assays:
Format in all cases: binding
TjapOBP3 [1] = molecular target: T1, TjapOBP3 (Trissolcus japonicus, UniProt A0A7G6J4J9); test: fluorescence titration, Scatchard; details: 50 mM Tris-HCl pH 7.4; excitation 337 nm; fluorescent probe
T1 construct: gene OBP3; mature, signal peptide removed; E. coli BL21; His-tag cleaved; ~15 kDa on SDS-PAGE; classical OBP; by primers starts KLSVPQLK and ends CWYHKNPEMYIFP
T1 sequence (A0A7G6J4J9 22-142): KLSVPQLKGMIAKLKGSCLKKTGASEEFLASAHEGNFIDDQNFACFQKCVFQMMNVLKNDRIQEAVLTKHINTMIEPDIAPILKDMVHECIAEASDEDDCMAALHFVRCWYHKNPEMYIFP

TjapOBP2 [2] = molecular target: T2, TjapOBP2 (Trissolcus japonicus, UniProt A0A7G6J4J8); test: fluorescence titration, Scatchard; details: 50 mM Tris-HCl pH 7.4; excitation 337 nm; fluorescent probe
T2 construct: gene OBP2; mature, signal peptide removed; E. coli BL21; His-tag cleaved; ~15 kDa on SDS-PAGE; classical OBP; by primers starts KRPDFIDDDM and ends QCIINNCPEMWFIV
T2 sequence (A0A7G6J4J8 23-142): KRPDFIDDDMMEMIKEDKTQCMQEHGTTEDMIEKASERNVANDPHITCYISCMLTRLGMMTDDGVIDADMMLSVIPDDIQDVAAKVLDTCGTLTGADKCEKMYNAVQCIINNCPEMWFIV

TjapOBP3 [3] = molecular target: T1, TjapOBP3; test: competitive fluorescence displacement of 1-NPN; details: 50 mM Tris-HCl pH 7.4; excitation 337 nm; competitive with 1-NPN
TjapOBP2 [4] = molecular target: T2, TjapOBP2; test: competitive fluorescence displacement of 1-NPN

Compound | K1-NPN (TjapOBP3 [1]) | K1-NPN (TjapOBP2 [2]) | competitive fluorescence displacement of 1-NPN (TjapOBP3 [3]) | IC50 (TjapOBP2 [4])
c1ccc(Nc2cccc3ccccc23)cc1 [1-NPN] | The fluorescent probe 1-NPN was used to bind the selected OBPs | The fluorescent probe 1-NPN was used to bind the selected OBPs |  | 
CCCCCCC/C=C/C=O [(E)-2-decenal] |  |  | TjapOBP1 and TjapOBP3 had a weak ability to bind (E)-2-decenal | 7.92 ± 1.03 µM

From publication PMC7494974, “Olfactory Reception of Host Alarm Pheromone Component by the Odorant-Binding Proteins in the Samurai Wasp, Trissolcus japonicus (Hymenoptera: Scelionidae)” (Frontiers in Physiology, 2020)
